# Patent US20160137639A1, “TRIAZOLE-ISOXAZOLE COMPOUND AND MEDICAL USE THEREOF” (JAPAN TOBACCO INC., priority 2012, published 2016)
# Biological target: T1, human RORγ (Homo sapiens, UniProt P51449)
# T1 construct: human, NM_005060.3 and from Ser253 to Lys518; expressed in transfected cells; host or cells: CHO cells (transient co-transfection with pG5-Luc reporter)
# T1 sequence (P51449 253-518): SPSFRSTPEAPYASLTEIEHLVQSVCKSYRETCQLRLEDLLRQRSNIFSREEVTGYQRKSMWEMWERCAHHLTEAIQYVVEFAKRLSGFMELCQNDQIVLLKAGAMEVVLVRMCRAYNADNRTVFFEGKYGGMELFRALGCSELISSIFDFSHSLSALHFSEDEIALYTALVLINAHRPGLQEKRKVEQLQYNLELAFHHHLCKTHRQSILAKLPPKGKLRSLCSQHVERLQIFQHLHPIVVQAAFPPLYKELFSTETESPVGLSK
# Assay: Luciferase reporter gene assay of inhibitory effect against RORγ transcriptional activity (GAL4-hRORγ plasmid in CHO cells)
# Assay type: cell-based
# Details: read-out: LUC EC50 (μM) hRORg
# Description: (§1) In vitro assay of inhibitory effect against RORγ transcriptional activity
# (§2) Inhibitory effect of test article on transcriptional activity of RORγ was measured by means of the following luciferase reporter gene assay.
# (§3) A cDNA encoding human and mouse RORγ ligand binding domain (LBD) were obtained based on the reported sequences (Genebank accession number and sequence: human, NM_005060.3 and from Ser253 to Lys518; mouse, NM_011281.2 and from Ile251 to Lys516).
# (§4) The cDNA of human RORγ or mouse RORγ was inserted into pFA-CMV vector (Strategene), which expresses GAL4-DNA binding domain fusion protein.
# (§5) The resulting plasmids are hereinafter referred to as GAL4-hRORγ plasmid and GAL4-mRORγ plasmid, respectively.
# (§6) Human or mouse GAL4-RORγ plasmid was transiently co-transfected into Chinese hamster ovary cells (CHO cells) with […] plasmid, a reporter plasmid expressing firefly luciferase depending on GAL4.
# (§7) TransIT CHO transfection reagent (Mirus) was used to co-transfect human or mouse GAL4-RORγ plasmid into CHO cells with pG5-Luc plasmid.
# (§8) One day before the assay, CHO cells were suspended in HAM F-12 Nutrient medium containing 10 v/v % fetal bovine serum and seeded at 6×10^6 cells per 175 cm^2 cell culture flask.
# (§9) Fifty four micro litters of Transit-CHO reagent was added into a 15 ml tube containing 1.16 ml of HAM F-12 Nutrient medium without fetal bovine serum and incubated at room temperature for 10 min.
# A total 36 uL plasmid solution containing the GAL4-hRORγ plasmid (400 ng), pG5-Luc plasmid (9000 ng) and pcDNA3 plasmid (8600 ng) were added into the tube and mixed gently.
# (§10) The mixture was incubated at room temperature for 10 min.
# (§11) Nine micro litters of CHO Mojo Reagent was then added into each tube and mixed gently. The mixture was incubated at room temperature for 10 min.
# (§12) The resultant transfection reagent was applied to the cell culture.
# (§13) After incubation at 37° C., 5% CO2 for 4 hr, the transfected CHO cells were harvested by a trypsin treatment.
# (§14) The collected cells were resuspended in HAM F-12 Nutrient medium supplemented with 10 v/v % fetal bovine serum and plated into a 384-well-white plate at 8,000 cells/50 uL/well.
# (§15) The plate was incubated at room temperature for 1 hour and then further incubated at 37° C., 5% CO2 for 3 hours.
# (§16) The test articles were dissolved in dimethylsulfoxide (DMSO) to obtain a concentration of 10 mmol/L. The resulting solution was diluted with the medium just before use and added to the cells in the plate to prepare 8 different concentrations of the test article.
# (§17) The final concentration of DMSO was 0.1 v/v % After the addition of the test articles, the cells were incubated at 37° C., 5% CO2 for 2 days.
# (§18) RORγ transcriptional activity was detected as the intracellular luciferase activity using SteadyLite HTS Reporter Gene Assay System (Perkin Elmer).
# (§19) StedyLite Reagent was diluted five-fold into a solution containing 10 mM Tricine, 0.2% w/v BSA, 0.02% v/v Tween-20 to obtain the luciferase substrate solution.
# (§20) After the measurement of the cell viability using Resazurin, the culture media in the 384 well-plate were removed. Then the Luc substrate solution was added into each well.
# (§21) After the incubation at room temperature for 10 minutes, luminescence of each well was measured by a microplate reader.
# (§22) The luciferase activity derived from the luminescence count in the vehicle-control well treated with 0.1% DMSO alone was defined as 100%, and the luciferase activity in the test article was calculated as a percentage (%-of-control) based on the value of the vehicle-control.
# (§23) EC50 value of test article was calculated by curve fitting with GraphPad Prism.
# (§24) The luminescence counts at the concentration of the test article where the cytotoxicity was observed were excluded from the data analysis.
row,Structure (SMILES),EC50
1,Cc1ccc(NC(=O)C[C@H](CCC(=O)O)c2noc(-c3ncc(CC(C)C)s3)c2C2CC2)c(Cl)c1 [Example E-15],< 3 µM
2,Cc1cc(F)ccc1NC(=O)C[C@H](CCC(=O)O)c1noc(-c2cc(CCC(C)(C)C)on2)c1C1CC1 [Example E-37],< 3 µM
3,CC(=O)N1CC[C@H](C(=O)Nc2ccc(C)cc2C)[C@H]1c1nnc(CCCC(C)(C)C)n1C1CC1 [Example F-296],< 3 µM
4,CNC(=O)C(C)(C)CCc1nnc(CCC(=O)Nc2cccc(Cl)c2C)n1C1CC1 [Example F-231],> 3 µM
5,CC(=O)N1C[C@H](C(=O)Nc2ccc(C)cc2C)[C@@H](c2nnc(-c3cc(CC(C)C)on3)n2C2CC2)C1 [Example F-408],< 3 µM
6,CCc1ccc(CNC(=O)CCc2nnc(CCC(C)C)n2C2CC2)cc1 [Example F-124],> 3 µM
7,Cc1ccc(NC(=O)CC(CCO)c2nnc(CCCC(C)C)n2C2CC2)c(C)c1 (racemic) [Example F-201],< 3 µM
8,Cc1ccc(NC(=O)CCc2nnc([C@H]3C[C@@H](CC4CCCC4)C3)n2C2CC2)c(C)c1 [Example F-424],< 3 µM
9,CC(=O)N1C[C@H](C(=O)Nc2ccc(F)cc2C)[C@@H](c2nnc(CCCC(C)(C)C)n2C2CC2)C1 (racemic) [Example F-333],< 3 µM
10,CCc1ccccc1CNC(=O)CCc1nnc(CCC(C)C)n1C1CC1 [Example F-125],> 3 µM
11,Cc1c(Cl)cccc1NC(=O)CC(CCN)c1nnc(CCCC(C)C)n1C1CC1 (racemic) [Example F-225],> 3 µM
12,"Cc1ccc(NC(=O)C(C)C(CCO)c2nnc([C@H]3C[C@@H](CC(C)C)C3)n2C2CC2)c(C)c1 (single isomer, unassigned) [Example F-490]",> 3 µM
13,CC(C)CCc1nnc(CCC(=O)N[C@H](C)c2ccccc2)n1C1CC1 [Example F-63],> 3 µM
14,Cc1ccc(NC(=O)CCc2nnc(CCC(C)C)n2C2CC2)c(C)c1 [Example F-79],> 3 µM
15,Cc1ccc(NC(=O)C[C@H](CCC(=O)O)c2noc(-c3cc(CC(C)C)[nH]n3)c2C2CC2)c(F)c1 [Example E-07],> 3 µM
16,"Cc1ccc(NC(=O)CCc2nnc(C3CC(COC(C)C)C3)n2C2CC2)c(C)c1 (single isomer, unassigned) [Example F-478]",> 3 µM
17,COc1cccc(NC(=O)[C@H]2CN(C(C)=O)C[C@@H]2c2nnc(CCCC(C)(C)C)n2C2CC2)c1C (racemic) [Example F-332],< 3 µM
18,CC(=O)N1C[C@H](C(=O)Nc2ccc(C)cc2C)[C@@H](c2nnc(CCC(C)(C)C(C)C)n2C2CC2)C1 (racemic) [Example F-321],< 3 µM

# Biological target: T2, mouse RORγ (Mus musculus, UniProt P51450)
# T2 construct: mouse, NM_011281.2 and from Ile251 to Lys516; expressed in transfected cells; host or cells: CHO cells (transient co-transfection with pG5-Luc reporter)
# T2 sequence (P51450 251-516): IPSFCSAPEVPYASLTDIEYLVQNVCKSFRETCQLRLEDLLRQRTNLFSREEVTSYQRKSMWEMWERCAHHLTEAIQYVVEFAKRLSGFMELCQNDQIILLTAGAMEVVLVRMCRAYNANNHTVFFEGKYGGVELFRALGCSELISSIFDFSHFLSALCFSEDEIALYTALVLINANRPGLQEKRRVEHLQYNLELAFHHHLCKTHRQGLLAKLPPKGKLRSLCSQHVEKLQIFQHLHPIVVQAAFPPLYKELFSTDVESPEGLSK
# Assay: Luciferase reporter gene assay of inhibitory effect against RORγ transcriptional activity (GAL4-mRORγ plasmid in CHO cells)
# Assay type: cell-based
# Details: read-out: LUC EC50 (μM) mRORg
# Description: as §1, §2, §3, §4, §5, §6, §7, §8, §9, §10, §11, §12, §13, §14, §15, §16, §17, §18, §19, §20, §21, §22, §23, §24
row,Structure (SMILES),EC50
1,Cc1ccc(NC(=O)C[C@H](CCC(=O)O)c2noc(-c3ncc(CC(C)C)s3)c2C2CC2)c(Cl)c1 [Example E-15],< 3 µM
2,Cc1cc(F)ccc1NC(=O)C[C@H](CCC(=O)O)c1noc(-c2cc(CCC(C)(C)C)on2)c1C1CC1 [Example E-37],< 3 µM
3,CC(=O)N1CC[C@H](C(=O)Nc2ccc(C)cc2C)[C@H]1c1nnc(CCCC(C)(C)C)n1C1CC1 [Example F-296],< 3 µM
4,CNC(=O)C(C)(C)CCc1nnc(CCC(=O)Nc2cccc(Cl)c2C)n1C1CC1 [Example F-231],> 3 µM
5,CC(=O)N1C[C@H](C(=O)Nc2ccc(C)cc2C)[C@@H](c2nnc(-c3cc(CC(C)C)on3)n2C2CC2)C1 [Example F-408],< 3 µM
6,CCc1ccc(CNC(=O)CCc2nnc(CCC(C)C)n2C2CC2)cc1 [Example F-124],> 3 µM
7,Cc1ccc(NC(=O)CC(CCO)c2nnc(CCCC(C)C)n2C2CC2)c(C)c1 (racemic) [Example F-201],< 3 µM
8,Cc1ccc(NC(=O)CCc2nnc([C@H]3C[C@@H](CC4CCCC4)C3)n2C2CC2)c(C)c1 [Example F-424],< 3 µM
9,CC(=O)N1C[C@H](C(=O)Nc2ccc(F)cc2C)[C@@H](c2nnc(CCCC(C)(C)C)n2C2CC2)C1 (racemic) [Example F-333],< 3 µM
10,CCc1ccccc1CNC(=O)CCc1nnc(CCC(C)C)n1C1CC1 [Example F-125],> 3 µM
11,Cc1c(Cl)cccc1NC(=O)CC(CCN)c1nnc(CCCC(C)C)n1C1CC1 (racemic) [Example F-225],> 3 µM
12,"Cc1ccc(NC(=O)C(C)C(CCO)c2nnc([C@H]3C[C@@H](CC(C)C)C3)n2C2CC2)c(C)c1 (single isomer, unassigned) [Example F-490]",> 3 µM
13,CC(C)CCc1nnc(CCC(=O)N[C@H](C)c2ccccc2)n1C1CC1 [Example F-63],> 3 µM
14,Cc1ccc(NC(=O)CCc2nnc(CCC(C)C)n2C2CC2)c(C)c1 [Example F-79],> 3 µM
15,Cc1ccc(NC(=O)C[C@H](CCC(=O)O)c2noc(-c3cc(CC(C)C)[nH]n3)c2C2CC2)c(F)c1 [Example E-07],> 3 µM
16,"Cc1ccc(NC(=O)CCc2nnc(C3CC(COC(C)C)C3)n2C2CC2)c(C)c1 (single isomer, unassigned) [Example F-478]",< 3 µM
17,COc1cccc(NC(=O)[C@H]2CN(C(C)=O)C[C@@H]2c2nnc(CCCC(C)(C)C)n2C2CC2)c1C (racemic) [Example F-332],< 3 µM
18,CC(=O)N1C[C@H](C(=O)Nc2ccc(C)cc2C)[C@@H](c2nnc(CCC(C)(C)C(C)C)n2C2CC2)C1 (racemic) [Example F-321],< 3 µM
